Assay results published in BindingDB's records for doi:10.1021/jm00117a017 (Merck Sharp and Dohme Research Laboratories, 1988).

Key:
[1] = target: D-alanine--D-alanine ligase (Enterococcus faecalis); experiment: Antibacterial activity against D-alanyl-D-alanine ligase from Streptococcus faecalis (ATCC 8043)
[2] = as above

Row | Structure (SMILES) | IC50 [1] [µM] | IC50 [2] [µM]
1 | CC(N)P(=O)(O)CC(Cc1ccccc1)C(=O)O (stereo not given) | 50 | –
2 | CCCCCCCC(C[PH](O)(O)C(C)=N)C(=O)O (stereo not given) | 200 | 12.5
3 | C[C@H](N)P(=O)(O)O [1-Ammonium-ethanephosphonic acid anion] | 930 | –
4 | CC(=N)[PH](O)(O)CC(CC(C)C)C(=O)O (stereo not given) [2-[(1-Amino-ethyl)-hydroxy-phosphinoylmethyl]-4-methyl-pentanoic acid;hydrate] | 30 | –
5 | CC(=N)[PH](O)(O)CC(CCc1ccccc1)C(=O)O (stereo not given) [2-[(1-Amino-ethyl)-hydroxy-phosphinoylmethyl]-4-phenyl-butyric acid;hydrate] | 40 | –
6 | CC(N)P(=O)(O)CC(CCCc1ccccc1)C(=O)O (stereo not given) [2-[(1-Amino-ethyl)-hydroxy-phosphinoylmethyl]-5-phenyl-pentanoic acid;hydrate] | 50 | –
7 | CCC(C[PH](O)(O)C(C)=N)C(=O)O (stereo not given) [2-[(1-Amino-ethyl)-hydroxy-phosphinoylmethyl]-butyric acid;hydrate] | 45 | –
8 | CCCC(CP(=O)(O)C(C)N)C(=O)O (stereo not given) [2-[(1-Amino-ethyl)-hydroxy-phosphinoylmethyl]-pentanoic acid;hydrate] | 20 | –
9 | CCCCC(C[PH](O)(O)C(=N)CC)C(=O)O (stereo not given) [2-[(1-Amino-propyl)-hydroxy-phosphinoylmethyl]-hexanoic acid;hydrate] | 155 | –
